Source: US20040116448A1, “Substances for the therapy of diseases caused by highly proliferating cells” (priority 2001, published 2004)

What was measured:
BJAB cells [1] = test: Cell death of BJAB cells after incubation with JV-206-1 (FIG. 6A); assay type: cell-based; details: incubation for 48 hours
Experimental: (§1) Further studies had the result that the BJAB cells are driven to the mitochondrial apoptosis signal pathway by JV-206-1. […] In addition, the fragmentation of the DNA was measured as a specific characteristic of apoptosis as described by Essmann et al. (2000). […] In these experiments, the proportion of apoptotic cells was between 20% and 48% of the total population, depending on the concentration and incubation time.

BJAB cells [2] = test: Mitochondrial membrane potential (JC-1 staining) in BJAB cells; assay type: cell-based
Experimental: as §1

BJAB cells [3] = test: DNA fragmentation (propidium iodide staining, flow cytometry) apoptosis assay in BJAB cells; assay type: cell-based; details: 20 μM
Experimental: The measurement of apoptosis is based on a method which detects the fragmentation of DNA on the level of individual cells, which is typical of apoptosis and distinguishes this form of cell death from necrosis. Thus, BJAB cells were treated with different concentrations of N76 or N69 for 24 h. Controls contained corresponding amounts of the solubilizer ethanol. After the treatment, the fragmentation of DNA was measured by staining with propidium iodide followed by quantification by flow cytometry as described by Essmann et al. (2000). The values are stated as % of apoptotic cells based on the total population±SD (n=3).
as §1

[4] = test system: lymphoblasts from children afflicted with acute lymphoblastic leukemia (ALL); test: DNA fragmentation apoptosis assay in primary lymphoblasts from children with acute lymphoblastic leukemia (ALL); assay type: cell-based, human; details: 25 μM, 36 h
Experimental: In this experiment, lymphoblasts from children afflicted with acute lymphoblastic leukemia (ALL) were isolated and, after dilution with cell culture medium, treated for 36 h with 25 μM N76, 25 μM N69 or with 9 μM epirubicin (E) as a positive control. Controls contained corresponding amounts of the solubilizer ethanol. After the treatment, the fragmentation of the DNA was measured by staining with propidium iodide followed by quantification by flow cytometry as described by Essmann et al. (2000). The values are stated as % of apoptotic cells based on the total population±SD (n=3).
Thus, with N76 and N69, two substances of general structural formula 2 are provided as effective agents against certain tumor cells, especially those of childhood ALL, but also against other malignant diseases of different origin. […] In these experiments, the cells from eleven ALL patients were isolated and, after dilution with cell culture medium, treated for 36 h with 25 μM N69, 25 μM N76 or corresponding amounts of cytarabin (AraC), fludarabin or doxorubicin. […] After the treatment, the fragmentation of the DNA was measured by staining with propidium iodide followed by quantification by flow cytometry as described by Essmann et al. (2000). P values were calculated from a paired t test and are stated in FIG. 4 directly for the individual pairs to be compared. […]

[5] = test system: cells from patients suffering from different leukemias; test: DNA fragmentation apoptosis assay in cells from patients suffering from different leukemias; assay type: cell-based, human; details: 25 μmol/l, 36 h
Experimental: The usefulness of substances according to the invention for the therapy of various malignant diseases of the hematopoetic system was tested on cells from patients suffering from different diseases. Thus, cells from patients suffering from different leukemias were isolated and, after dilution with cell culture medium, treated for 36 h with 25 μM N69. Controls contained corresponding amounts of the solubilizer ethanol. After the treatment, the fragmentation of the DNA was measured by staining with propidium iodide followed by quantification by flow cytometry as described by Essmann et al. (2000). The result can be seen in FIG. 3. The measured values are stated as % of apoptotic cells based on the total population and represent the mean value from duplicate experiments.

BIAB cells = test: Combined proliferation and cell death assay (Neubauer cell counting, trypan blue staining); assay type: cell-based; details: 25 μM, after 24 h
Experimental: To further characterize the role of the various components of the newly described substances, the iron-complexed compound N69 and the compound obtainable from N69 by cleaving the Fe(CO)3 group were prepared and employed in a combined proliferation and cell death assay. Thus, BIAB cells were treated for 24 h and 72 h. with different concentrations of N69 or the corresponding compound lacking the iron complex. Controls contained corresponding amounts of the solubilizer ethanol. After the treatment, the number of cells was counted in a Neubauer counting chamber, and the number of dead cells was counted by trypan blue staining as described by Wieder et al. (1995). […] FIG. 5B states the proportion of dead cells in %±SD (n=3) as determined at these times at the respective concentration. […] As can be easily seen, the complexed iron plays an important role in the cell-death inducing activity of the substances. The complexed iron shifts the dose-effect curve of the cell-death inducing effect of N69 towards lower concentrations.

| Compound | induction of cell death (BJAB cells [1]) | fraction of cells having a reduced mitochondrial membrane potential (ΔΨm) (BJAB cells [2]) | cell death by apoptosis (DNA fragmentation) (BJAB cells [3]) | pro-apoptotic effect in vitro towards primary ALL cells compared to established cytostatic agents ([4]; cells from eleven ALL patients, versus doxorubicin, cytarabin and fludarabin-5′ dihydrogenphosphate, paired t test) | induction of apoptosis in vitro in therapy-resistant cells of patients ([4]; ALL lymphoblasts, in contrast to 9 μM epirubicin (positive control)) | induction of apoptotic cell death ([5]; cells from patients suffering from acute myeloblastic leukemia (AML)) | induction of apoptotic cell death ([5]; cells from patients suffering from chronic myeloblastic leukemia (CML)) | induction of apoptotic cell death ([5]; cells from patients with a first manifestation of ALL) | induction of apoptotic cell death ([5]; cells from patients with a recurrence of acute lymphoblastic leukemia (ALL-Rez)) | proportion of dead cells (trypan blue) (BIAB cells) |
| --- | --- | --- | --- | --- | --- | --- | --- | --- | --- | --- |
| CCOC(=O)C=CC1=C[C@H](n2cc(Br)c(=O)[nH]c2=O)C[C@H]1CO[Si](C)(C)C(C)(C)C(C)C.O=[C]=[Fe](=[C]=O)=[C]=O (racemic) [JV-206-1, (3RS,5RS)-3-[3-(5-bromo-2,4-dioxo-3,4-dihydro-2H-pyrimidin-1-yl)-5-[dimethyl-(1,1,2-trimethylpropyl)silanyloxymethyl]-cyclopent-1-enyl]acrylic-acid-ethyl-estertricarbonyliron] | induces cell death | concentration-dependent increase | major part of the cells die | – | – | – | – | – | – | – |
| exo-[2′,2″,3′,3″-η-(3′-(3″-(E)-acrylic-acid-ethyl-ester-3″-yl)-2′,3′-didehydro-2′,3′-dideoxy-5′-O-(dimethylthexylsilyl)-β-D-cytidine)]tricarbonyliron [N69] | – | – | – | significantly better pro-apoptotic effect | induce apoptosis | induces apoptotic cell death | induces apoptotic cell death | induces apoptotic cell death | induces apoptotic cell death | about 90% |
